How the values were obtained:
L1210 = experiment: Cytotoxicity against mouse L1210 cells; format: functional, cell-based
MCF7 [1] = experiment: Cytotoxicity against human MCF-7 cells incubated for 72 hrs by MTT assay; format: functional, cell-based; conditions: MCF7, 72 h
SW1990 = experiment: Antiproliferative activity against human SW1990 incubated for 72 hrs by sulphorhodamine B assay; format: functional, cell-based; conditions: SW1990, 72 h
MDA-MB-231 [2] = experiment: Cytotoxicity against human MDA-MB-231 cells incubated for 72 hrs by MTT assay; format: functional, cell-based; conditions: MDA-MB-231, 72 h
PANC-1 = experiment: Cytotoxicity against human Panc-1 cells incubated for 72 hrs by sulphorhodamine B assay; format: functional, cell-based; conditions: PANC-1, 72 h
P388 [3] = experiment: Antiproliferative activity against mouse P388 cells; format: functional, cell-based
HCT-15 = experiment: Cytotoxicity against human HCT-15 cells by SRB staining assay; format: functional, cell-based
SK-OV-3 = experiment: Cytotoxicity against human SK-OV-3 cells by SRB staining assay; format: functional, cell-based
A549 [4] = experiment: Cytotoxicity against human A549 cells by SRB staining assay; format: functional, cell-based
SK-MEL-2 = experiment: Cytotoxicity against human SK-MEL-2 cells by SRB staining assay; format: functional, cell-based
XF498 = experiment: Cytotoxicity against human XF498 cells by SRB staining assay; format: functional, cell-based
[5] = Antiproliferative activity against human Panc-28 cells incubated for 72 hrs by MTT assay; format: functional, cell-based; conditions: MDA-Panc-28, 72 h
HT-29 = experiment: Cytotoxicity against human HT-29 cells incubated for 48 hrs by MTT assay; format: functional, cell-based; conditions: HT-29, 48 h
MDA-MB-231 [6] = experiment: Cytotoxicity against human MDA-MB-231 cells incubated for 48 hrs by MTT assay; format: functional, cell-based; conditions: MDA-MB-231, 48 h
A2058 = experiment: Cytotoxicity against human A2058 cells incubated for 48 hrs by MTT assay; format: functional, cell-based; conditions: A2058, 48 h
[7] = Inhibition of PAFR in New Zealand rabbit platelets assessed as reduction in PAF-induced platelet aggregation measured within 5 mins by aggregometry analysis; format: tissue-based; conditions: Oryctolagus cuniculus
[8] = Inhibition of [3H]PAF-acether binding to PAFR in rabbit platelet plasma membranes incubated for 1 hr; format: cell membranes, Oryctolagus cuniculus, Cell membrane
P388 [9] = experiment: Cytotoxicity against mouse P388 cells incubated for 48 hrs by MTT assay; format: functional, cell-based; conditions: P388, 48 h
MCF7 [10] = experiment: Antiproliferative activity against human MCF7 cells incubated for 48 hrs by [3H]-thymidine incorporation assay; format: functional, cell-based
MDA-MB-435 = experiment: Antiproliferative activity against human MDA-MB-435 cells incubated for 48 hrs by [3H]-thymidine incorporation assay; format: functional, cell-based
A-431 = experiment: Antiproliferative activity against human A-431 cells incubated for 72 hrs by Sulforhodamine B assay; format: functional, cell-based; conditions: A-431, 72 h
A549 [11] = experiment: Antiproliferative activity against human A549 cells incubated for 72 hrs by Sulforhodamine B assay; format: functional, cell-based; conditions: A549, 72 h
[12] = Antiproliferative activity against human U87-MG cells incubated for 72 hrs by Sulforhodamine B assay; format: functional, cell-based; conditions: U-87 MG
HepG2 [13] = experiment: Cytotoxicity against human HepG2 cells incubated for 48 hrs by alamarblue reagent based assay; format: functional, cell-based; conditions: HepG2, 48 h
MCF7 [14] = experiment: Cytotoxicity against human MCF7 cells incubated for 48 hrs by alamarblue reagent based assay; format: functional, cell-based; conditions: MCF7, 48 h
BGC-823 = experiment: Cytotoxicity against human BGC-823 cells by MTT assay; format: functional, cell-based
HepG2 [15] = experiment: Cytotoxicity against human HepG2 cells by MTT assay; format: functional, cell-based
HCT-116 = experiment: Cytotoxicity against human HCT-116 cells by MTT assay; format: functional, cell-based

C=C1[C@@H](O)[C@@]2(O)OC[C@@]34[C@H]1[C@@H](OC(=O)/C=C/CCCCCCCC)C(=O)O[C@@H]3C[C@H]1C(C)=CC(=O)[C@@H](O)[C@]1(C)[C@@H]24
IC50 (L1210): 0.09 µM

CC1=CC(=O)[C@@H](O)[C@]2(C)[C@H]3[C@@H](O)[C@H](O)[C@@]4(C)OC[C@@]35[C@@H](C[C@@H]12)OC(=O)[C@H](O)[C@]54O
IC50 (MCF7 [1]): 19 µM
IC50 (SW1990): 2.1 µM
IC50 (MDA-MB-231 [2]): 24 µM
IC50 (PANC-1): 1.3 µM

CC(=O)O[C@@H]1C[C@H](O)[C@@]23COC(O)[C@]1(C)[C@@H]2C[C@@H](O)[C@]1(C)[C@@H]3C(=O)C(O)[C@@]2(C)[C@H](c3ccoc3)C[C@H]3O[C@@]312 (stereo partly drawn)
IC50 (P388 [3]): 0.0038 µM
IC50 (HCT-15): 0.15 µM
IC50 (SK-OV-3): 0.47 µM
IC50 (A549 [4]): 0.075 µM
IC50 (SK-MEL-2): 0.019 µM
IC50 (XF498): 0.038 µM

CC1(C)O[C@H]2CC(=O)OC[C@]23[C@H]2CC[C@@]4(C)[C@H](C5=CC(=O)OC5O)OC(=O)[C@H]5O[C@]54[C@]2(C)C(=O)C[C@@H]13 (stereo partly drawn)
IC50 [5]: 22 µM

C=C1CC[C@@H]2[C@](C)(COC(=O)CN(C)c3ccc([N+](=O)[O-])c4nonc34)[C@H](O)CC[C@@]2(C)[C@@H]1C/C=C1/C(=O)OC[C@H]1OC(C)=O
IC50 (HT-29): 12 µM
IC50 (MDA-MB-231 [6]): 9.8 µM
IC50 (A2058): 4.5 µM

C[C@@H]1C(=O)O[C@H]2[C@H](O)[C@]34[C@@H]5OC(=O)[C@]3(O[C@@H]3OC(=O)[C@H](O)[C@@]34[C@H](C(C)(C)C)[C@H]5O)[C@@]12O
IC50 [7]: 7.5 µM
IC50 [8]: 17 µM

C[C@H](CO)[C@H]1OC(=O)C=C2[C@@]3(C)[C@H](O)CC[C@]4(C)C(=O)O[C@H]([C@H]5O[C@@]251)[C@H]34
IC50 (P388 [9]): 2.1 µM

CC1(C)O[C@H]2CC(=O)OC[C@]23[C@H]2CC[C@@](C)([C@@H](O[C@H]4O[C@H](CO)[C@@H](O)[C@H](O)[C@H]4O)c4ccoc4)[C@@]4(O[C@@H]4C(=O)O)[C@]2(C)C(=O)C[C@@H]13
IC50 (MCF7 [10]): 55 µM
IC50 [5]: 20 µM
IC50 (MDA-MB-435): 119 µM

CC1(C)O[C@H]2CC(=O)OC[C@]23[C@H]2CC[C@@]4(C)[C@H](C5=CC(O)OC5=O)OC(=O)[C@H]5O[C@]54[C@]2(C)C(=O)C[C@@H]13 (stereo partly drawn)
IC50 [5]: 18 µM

CC(=O)OC1C(=O)[C@@H]2[C@@]34COC(O)[C@@](C)([C@H](OC(C)=O)C[C@@H]3O)[C@@H]4C[C@@H](O)[C@@]2(C)[C@@]23O[C@@H]2C[C@@H](c2ccoc2)[C@]13C (stereo partly drawn)
IC50 (HCT-15): 0.07 µM
IC50 (SK-OV-3): 0.035 µM
IC50 (A549 [4]): 0.017 µM
IC50 (SK-MEL-2): 0.0012 µM
IC50 (XF498): 0.012 µM

C[C@H](CO)[C@H]1OC(=O)C=C2[C@@]13O[C@@H]3[C@H]1OC(=O)[C@@]3(C)C[C@@H](O)C[C@@]2(C)[C@@H]13
IC50 (A-431): 1.7 µM
IC50 (A549 [11]): 1.4 µM
IC50 [12]: 1.4 µM

C/C1=C\CC[C@@]2(C)O[C@H]2[C@H]2OC(=O)C(CNC(Cc3ccc(N(CCCl)CCCl)cc3)C(=O)O)[C@@H]2CC1 (stereo partly drawn)
IC50 (HepG2 [13]): 0.26 µM
IC50 (MCF7 [14]): 1.8 µM

CC(C)(O)[C@]12O[C@H]1[C@@H]1O[C@]13[C@]1(O[C@H]1C[C@H]1C4=C(CC[C@@]13C)C(=O)OC4)[C@@H]2O
IC50 (BGC-823): 0.2 µM
IC50 (HepG2 [15]): 0.77 µM
IC50 (HCT-116): 0.39 µM

C[C@@H]1C(=O)O[C@H]2C[C@@]34[C@H]5C[C@@H](C(C)(C)C)[C@]36[C@@H](OC(=O)[C@@H]6O)O[C@@]4(C(=O)O5)[C@]21O [GINKGOLIDE A]
IC50 [7]: 0.58 µM
IC50 [8]: 0.94 µM

CC1(C)O[C@H]2CC(=O)OC[C@]23[C@H]2CC[C@@]4(C)[C@H](c5ccoc5)OC(=O)[C@H]5O[C@]54[C@]2(C)C(=O)C[C@@H]13 [LIMONIN]
IC50 (MCF7 [10]): 4.3 µM
IC50 [5]: 42 µM
IC50 (MDA-MB-435): 26 µM

CC(C)[C@]12O[C@H]1[C@@H]1O[C@]13[C@]1(O[C@H]1C[C@H]1C4=C(C(=O)OC4)[C@@H](O)C[C@@]13C)[C@@H]2O [TRIPDIOLIDE]
IC50 (BGC-823): 0.91 µM
IC50 (HepG2 [15]): 1.7 µM
IC50 (HCT-116): 0.73 µM
